Laboratory results: patent US9944607B2, “Thiohydantoin derivatives and uses thereof” (Whitehead Institute for Biomedical Research, priority 2012, dated 2018)
Converted amounts (≈) assume the structure as drawn. Read-outs that look alike come from different tables or passages of the source.

What was measured:
[1] = test system: NIH-3T3 mammalian fibroblasts; assay: Counterscreen mammalian cell toxicity assay (Alamar Blue); type: cell-based, murine; conditions: for IC50: Mus musculus
Method in brief: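 Quiescent NIH-3T3 fibroblasts, cultured overnight, exposed to 100 nL pinned compound for 48 h at 37° C, 5% CO2. Alamar Blue added to 1:200 final, 2-3 h further incubation; fluorescence (RFU) read as relative cell growth.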

[2] = Solubility in PBS pH 7.4 with 1% DMSO; conditions: for solubility at 24 h: pH 7.4, aqueous buffer, kinetic from dmso stock; for PBS Solubility: PBS pH 7.4 with 1% DMSO, 24 hours, room temperature
Method in brief: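 Compounds at 100 μM in duplicate in PBS pH 7.4 containing 1% DMSO, shaken 24 hours at room temperature. Concentration measured by UPLC-MS with SIR detection, fitted to a two-point calibration from matching 100% DMSO samples.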

C. glabrata (ATCC 2001) = assay: Secondary C. glabrata inhibition in glycerol media (OD600); type: cell-based, Candida glabrata; conditions: for IC50: Nakaseomyces glabratus
Excerpt: Cell Lines. • Candida albicans CaCi-2; a drug-resistant clinical isolate was provided by the Whitehead Institute (Redding et al., Clin. Infect. Dis. 1994, 18(2):240-2). This strain was used for the primary assay. • Candida albicans CaCi-17; a strongly drug-resistant clinical isolate was provided by the Whitehead Institute (Redding et al., Clin. Infect. Dis. 1994, 18(2):240-2). This strain was used for the primary assay • Saccharyomyces cerevisiae W303-1a (ATCC 208352); a well-characterized Saccharomyces strain used for determination of glycolytic vs. respiratory metabolism, as well as in the mitochondrial disruption assay. • Candida glabrata (ATCC 2001); used for determination of glycolytic vs. respiratory metabolism. • NIH-3T3 mammalian fibroblasts (ATCC; CRL no.1658); used for mammalian toxicity assays. […]
Saccharomyces, while not a major human pathogen, is a useful lab model with well-developed genetic tools available. Candida glabrata is an increasingly prominent clinical problem for immune-compromised patients but with fewer genetic tools available with which to study it. These organisms can utilize alternative metabolic pathways to support growth and survival depending on the carbon source. By comparing the concentration-dependent inhibition of yeast growth in glycerol relative to glucose media, a quantitative assessment of a compound's ability to disrupt respiration can be determined. […].
Clear, flat bottom, black 384-well plates (Corning Catalog no. 3712BC; Lot no. 35808016); Amphotericin B (Sigma Catalog no. A2411) 15 mM stock solution in DMSO; Pen/Strep (Gibco Catalog no. 10378-016; Lot no21040170) 100× in PBS.
Synthetic defined growth medium. Complete Supplement Mixture; (Sunrise Science, Catalog No. 1001-100); Yeast Nitrogen Base without ammonium sulfate (MP Biomedicals, Catalog No. 4027-012); Glycerol (Sigma Catalog No. G-9012). • Prepare medium by dissolving 0.79 g Complete Supplement Mixture and 1.7 g Yeast Nitrogen Base in 800 mL water. • Add 20 mL of glycerol. Adjust final volume to 1000 mL. Filter sterilize.
Fungal Inoculum. Test Strains: C. glabrata (ATCC 2001) and Saccharomyces cerevisiae W303. • Inoculate 100 μL of yeast from cryopreserved stock into 250 mL shaker flask containing 20 mL growth medium. Shake at 30° C. overnight (about 16 hours). • Read OD 600 of 1 mL of fungal culture in a cuvette using a standard optical density reader (Eppendorf BioPhotometer Plus), with growth medium as a background blank. • Dilute to desired volume of fungal inoculum to produce an OD600 reading of 0.005 (S. cerevisiae) or 0.004 (C. glabrata).
Procedures • Use a Thermo Combi nL to dispense 20 μL/well of assay media into all wells. • Add 2 μL of Amphotericin B to control wells. • Pin 100 nL of test compound from compound plates into assay plates using a CyBi-Well pin tool. • Dispense 20 μL/well of culture into the assay media in all wells. • Incubate the plates in a humidified (90% humidity) Liconic incubator at 37° C. without agitation for 48 hours. • Shake plates briefly. • Read OD600 of wells on a standard plate reader as measure of relative fungal growth. Envision (Perkin Elmer) plate reader settings: Ex Photometric 600, Top read. Secondary Glucose Assay Protocol (AID 623971, 623967, 624013, 624025) Materials and Reagents

[3] = phosphate buffered saline with 1% DMSO

CCOC(=O)N1C(=O)C2(CCCCC2)N(c2ccc(F)cc2)C1=S [CID 56604860, Ethyl 1-(4-fluorophenyl)-4-oxo-2-thioxo-1,3-diazaspiro[4.5]decane-3-carboxylate]
IC50 ([1]; NIH3T3, read-out: Murine 3T3 fibroblasts growth inhibition (fibroblast toxicity) IC50): > 26 µM
Toxicity against mammalian fibroblasts (in words) ([1]; at concentrations up to 26 μM): no apparent toxicity
solubility at 24 h [2, 3]: 1.1 µM (≈ 0.385 µg/mL)
Reduction in potency when glucose is available instead of glycerol, C. glabrata (C. glabrata (ATCC 2001)): greater than 250 fold
IC50 (C. glabrata (ATCC 2001); ATCC2001, read-out: Growth inhibition of C. glabrata on glycerol IC50): 0.011 µM
Fold Selective (Glucose IC50/Glycerol IC50), C. glabrata (C. glabrata (ATCC 2001); Table 13): >272x

C/C=C/C1[C@H]2C[C@@H](C)CC[C@@H]2C(C)=C[C@H]1C(=O)c1c(O)c(-c2ccc(O)cc2)c[nH]c1=O (some centres unmarked) [ilicicolin H, reference compound]
IC50 ([1]; NIH3T3, Tables 9, 10, 12, AID 602394, read-out: Murine 3T3 fibroblasts growth inhibition (fibroblast toxicity) IC50): 10 µM
solubility at 24 h [2]: < 1 µM
IC50 (C. glabrata (ATCC 2001); ATCC2001, figure legends and Tables 9, 10, 13, AID 623965, read-out: Growth inhibition of C. glabrata on glycerol IC50): 2.6 µM

CCOC(=O)N1C(=O)C2(CCCCC2)N(c2cccc(C)c2)C1=S [compound 56604823]
IC50 ([1]; NIH3T3, read-out: Growth Inhibition Activity, IC50 (μM), 3T3 Fibroblasts (n = 1), Table 4, n = 1, 48 hours, tested up to 26 μM): 24.2 µM
solubility at 24 h [2, 3]: 2.6 µM (≈ 0.901 µg/mL)
IC50 (C. glabrata (ATCC 2001); ATCC2001, Table 8, n = 3, glycerol media, 48 hours, tested up to 3 μM, read-out: Growth Inhibition Activity, IC50 (μM), C. glabrata (n = 3) On glycerol): 0.034 µM

CCOC(=O)N1C(=O)C2(CCCCC2)N(c2ccc(C)cc2)C1=S [compound 3889161]
Growth Inhibition Activity, IC50 (μM), 3T3 Fibroblasts (n = 1) ([1]; Table 3, n = 1, 48 hours, tested up to 26 μM): Inactive
Growth Inhibition Activity, IC50 (μM), 3T3 Fibroblasts (n = 1) ([1]; Table 4, n = 1, 48 hours, tested up to 26 μM): Inactive
Growth Inhibition Activity, IC50 (μM), 3T3 Fibroblasts (n = 1) ([1]; Table 5, n = 1, 48 hours, tested up to 26 μM): Inactive
Growth Inhibition Activity, IC50 (μM), 3T3 Fibroblasts (n = 1) ([1]; Table 6, n = 1, 48 hours, tested up to 26 μM): Inactive
Growth Inhibition Activity, IC50 (μM), 3T3 Fibroblasts (n = 1) ([1]; Table 7, n = 1, 48 hours, tested up to 26 μM): Inactive
PBS Solubility ([2]; Table 4): <1.0 µM
PBS Solubility ([2]; Table 5): <1.0 µM
PBS Solubility ([2]; Table 6): <1.0 µM
PBS Solubility ([2]; Table 7): <1.0 µM
solubility at 24 h [2, 3]: < 1 µM
IC50 (C. glabrata (ATCC 2001); ATCC2001, 48 h, read-out: Growth Inhibition Activity, IC50 (μM), C. glabrata (n = 3) On glycerol): 0.041 µM
